The EC50 is the concentration giving half of the maximal effect. One may read the Emax as the greatest response seen or fitted, relative to the assay's reference.

This passage reports EC50 and Emax results from patent publication US20230174523A1, “BENZENESULFONAMIDE DERIVATIVES AS TRAP1 MODULATORS AND USES THEREOF” (Amathus Therapeutics, Inc., priority 2020, published 2023).

The target of assay [1] is T1, TRAP1 enzyme (Homo sapiens, UniProt Q12931).
T1 sequence (Q12931 60-704): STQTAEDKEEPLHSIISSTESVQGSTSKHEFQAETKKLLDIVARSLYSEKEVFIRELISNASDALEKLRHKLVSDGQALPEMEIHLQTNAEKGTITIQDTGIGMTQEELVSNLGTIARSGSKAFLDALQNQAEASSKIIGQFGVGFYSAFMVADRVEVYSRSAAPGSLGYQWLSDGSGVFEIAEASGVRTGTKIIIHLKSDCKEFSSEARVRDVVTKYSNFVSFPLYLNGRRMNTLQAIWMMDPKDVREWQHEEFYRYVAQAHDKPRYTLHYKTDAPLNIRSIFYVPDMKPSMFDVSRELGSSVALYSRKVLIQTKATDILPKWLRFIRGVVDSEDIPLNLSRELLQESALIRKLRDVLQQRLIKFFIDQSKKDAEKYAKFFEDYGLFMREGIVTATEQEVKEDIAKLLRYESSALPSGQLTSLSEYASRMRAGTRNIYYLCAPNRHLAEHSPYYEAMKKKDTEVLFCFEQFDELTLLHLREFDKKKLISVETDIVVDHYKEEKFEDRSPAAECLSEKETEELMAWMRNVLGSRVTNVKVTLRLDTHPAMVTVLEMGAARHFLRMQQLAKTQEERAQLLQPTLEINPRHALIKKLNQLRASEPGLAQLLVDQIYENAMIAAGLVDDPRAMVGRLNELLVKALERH
In words: Malachite green phosphate assay of TRAP1 ATPase activity. Format: biochemical. To be noted: for EC50: TRAP1 ATPase activation, 150 nM Trap1, 20 μM ATP, geometric mean, read-out: Malachite Green Fluor DRC: GeoMean EC50; for Emax: read-out: Malachite Green Fluor DRC: Mean Emax. As for the experimental part: The Potency of test compounds to modulate the ATPase activity of TRAP1 enzyme was evaluated using malachite green phosphatase assay. The assay is based on quantification of the green complex formed between Malachite Green, molybdate and inorganic phosphate generated in the phosphatase reaction. Assays were performed using a Malachite Green assay kit. All the assays were carried out in a 96-well transparent plate. The buffer used was 50 mM HEPES (pH 7.5), 20 mM KCl, 4 mM MgCl2 and 0.05% BSA. 150 nM Trap1 enzyme was incubated with various concentrations of the test compound (0.78 μM-100 μM) at 37° C. for 30 mins. 20 μM ATP was added to each well (except blank wells) to start the reaction and the plate was then incubated at 37° C. for 180 mins. 10 μl of the reaction volume of each sample was then transferred to a white 384-well proxiplate in quadruplets. 2.5 μl of Malachite Green reagent was added to all the wells and the plate was equilibrated for 15 mins. The reaction was stopped by adding 12% H2SO4 and the plate was read for fluorescence at 620 nm (λex=573 nm). The amount of phosphate released was estimated from a phosphate standard curve generated at the same experimental conditions. Emax (Maximal percent activation) and EC50 (concentration of test compound for half maximal activation) were estimated by fitting the dose response data to a sigmoidal curve fitting equation using Graphpad Prism software V.7.0.

Assay [2] has as its target T1, TRAP1 enzyme. In words: ADP Glo assay of TRAP1 ATPase activity. Format: biochemical. To be noted: for EC50: TRAP1 ATPase activation, 150 nM Trap1, 20 μM ATP, geometric mean, read-out: ADP GLO DRC: GeoMean EC50; for Emax: read-out: ADP GLO DRC: Mean Emax. An outline of the steps:
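150 nM TRAP1 preincubated with compound (0.79–100 μM) 30 min at 37° C in Pipes pH 7.5 buffer (0.05 mM MgCl2, 40 mM KCl), then 20 μM ATP added for 60 min at 37° C. ADP quantified by ADP-Glo luminescence against ATP/ADP standard curve. Emax and EC50 from sigmoidal fit.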
(ADP-Glo first removes unused ATP, then detects ADP through luciferase.)

Regarding `COc1ccc(NC(=O)c2ccccc2C(F)(F)F)cc1S(=O)(=O)N1CCCCC1` [Compound 41], on TRAP1 enzyme [1], the EC50 lay within 10 to 20 µM and the Emax lay within 160 to 199%.

`COc1ccc(NC(=O)c2cnccc2C)cc1S(=O)(=O)Nc1ccc(C)cc1` [Compound 54]: on TRAP1 enzyme [1], the EC50 was in the range of 20 to 100 µM and the maximal response (Emax) lay within 160 to 199%.

On to `COc1ccc(NC(=O)c2cnccc2C)cc1S(=O)(=O)Nc1ccccc1C` [Compound 64], for which, at TRAP1 enzyme [1], the concentration for a half-maximal effect (EC50) was in the range of 20 to 100 µM and the maximal response (Emax) fell in the range of 160 to 199%.

On to `COc1ccc(NC(=O)c2cnco2)cc1S(=O)(=O)Nc1ccc(Br)cc1` [Compound 91, N-(3-(N-(4-bromophenyl)sulfamoyl)-4-methoxyphenyl) oxazole-5-carboxamide], for which, on TRAP1 enzyme [1], the EC50 was in the range of 20 to 100 µM and the maximum response (Emax) was in the range of 160 to 199%.

For `COc1ccc(NC(=O)c2cnc(C(F)(F)F)[nH]2)cc1S(=O)(=O)Nc1ccc(Br)cc1` [Compound 105], at TRAP1 enzyme [1], the concentration giving a half-maximal response (EC50) is 20 to 100 µM and the maximal effect (Emax) lay in the range of 200 to 300%.

For `CC(=O)c1c(C)[nH]c(C(=O)Nc2cccc(S(=O)(=O)N3CCCC3)c2)c1C` [Compound 148], on TRAP1 enzyme [1], the concentration giving a half-maximal response (EC50) lay within 10 to 20 µM and the maximal response (Emax) lay within 200 to 300%.

`COc1ccc(NC(=O)c2cnc(-c3ccccc3)[nH]2)cc1S(=O)(=O)N(C)c1ccc(Br)cc1` [Compound 164]: at TRAP1 enzyme [1], the EC50 lay in the range of 20 to 100 µM and the maximum response (Emax) was in the range of 160 to 199%.

As to `O=C(Nc1ccc(F)c(S(=O)(=O)Nc2ccc(Br)cc2)c1)c1cnc(-c2ccccc2)[nH]1` [Compound 168], at TRAP1 enzyme [1], the EC50 lay in the range of 10 to 20 µM and the maximum response (Emax) is 200 to 300%.

With `O=C(Nc1cccc(S(=O)(=O)Nc2ccc(Br)cc2)c1)c1cnc(-c2ccccc2)[nH]1` [Compound 169], on TRAP1 enzyme [1], the half-maximal effective concentration (EC50) was 10 to 20 µM and the maximal response (Emax) lay within 200 to 300%.

With `CCc1ccc(NC(=O)c2cnc(-c3ccccc3)[nH]2)cc1S(=O)(=O)Nc1ccc(Br)cc1` [Compound 170], on TRAP1 enzyme [1], the concentration for a half-maximal effect (EC50) was less than 10 µM and the Emax was 160 to 199%.

Take `COc1ccc(NC(=O)c2cnc(-c3ccccc3)[nH]2)cc1S(=O)(=O)Nc1ccc(F)cc1` [Compound 171]: on TRAP1 enzyme [1], the EC50 is less than 10 µM and the maximal effect (Emax) fell in the range of 200 to 300%.

For the compound `COc1ccc(NC(=O)c2ncco2)cc1S(=O)(=O)Nc1ccc(Br)cc1` [Compound 172], on TRAP1 enzyme [1], the EC50 is less than 10 µM and the Emax fell in the range of 160 to 199%.

On to `COc1ccc(NC(=O)c2cnc(-c3ccccc3)o2)cc1S(=O)(=O)Nc1ccc(Br)cc1` [Compound 185], for which, at TRAP1 enzyme [1], the concentration for a half-maximal effect (EC50) fell in the range of 10 to 20 µM and the maximal response (Emax) lay within 160 to 199%.

`O=C(Nc1ccc(F)c(S(=O)(=O)Nc2ccc(Br)cc2)c1)c1cnc(C(F)(F)F)[nH]1` [Compound 186]: on TRAP1 enzyme [1], the half-maximal effective concentration (EC50) is 20 to 100 µM and the Emax lay in the range of 200 to 300%.

On to `COc1ccc(NC(=O)c2cnc(-c3ccccc3)[nH]2)cc1S(=O)(=O)N1Cc2ccc(F)cc2C1` [Compound 200], for which, at TRAP1 enzyme [1], the half-maximal effective concentration (EC50) is less than 10 µM and the Emax fell in the range of 160 to 199%.

For the compound `COc1ccc(NC(=O)c2cnc(-c3ccccc3)[nH]2)cc1S(=O)(=O)Nc1ccccc1C` [Compound 201], on TRAP1 enzyme [1], the concentration for a half-maximal effect (EC50) fell in the range of 10 to 20 µM and the Emax was 160 to 199%.

Consider `COc1ccc(NC(=O)c2cnc(-c3ccccc3)[nH]2)cc1S(=O)(=O)Nc1ccncc1` [Compound 213], for which, at TRAP1 enzyme [1], the half-maximal effective concentration (EC50) was in the range of 20 to 100 µM and the Emax is 160 to 199%.

Take `CCc1ccc(NC(=O)c2cnc(C(F)(F)F)[nH]2)cc1S(=O)(=O)Nc1ccc(Br)cc1` [Compound 216]: on TRAP1 enzyme [1], the EC50 was less than 10 µM and the Emax lay within 200 to 300%.

As to `O=C(Nc1ccc(F)c(S(=O)(=O)Nc2ccc(F)cc2)c1)c1cnc(C(F)(F)F)[nH]1` [Compound 220], at TRAP1 enzyme [1], the EC50 is 10 to 20 µM and the Emax was 160 to 199%.

Consider `COc1ccc(NC(=O)c2cnc(C(F)(F)F)[nH]2)cc1S(=O)(=O)Nc1ccccc1` [Compound 223], for which, on TRAP1 enzyme [1], the 50% effective concentration (EC50) lay in the range of 10 to 20 µM and the Emax was in the range of 160 to 199%.

Turning to `COc1ccc(NC(=O)c2cnc(C(F)(F)F)[nH]2)cc1S(=O)(=O)Nc1ccc(C)cc1` [Compound 224], on TRAP1 enzyme [1], the EC50 was in the range of 20 to 100 µM and the Emax was 123 to 159%.

As to `COc1ccc(NC(=O)c2cnc(C(F)(F)F)[nH]2)cc1S(=O)(=O)N1Cc2cccc(F)c2C1` [Compound 225], at TRAP1 enzyme [1], the EC50 lay in the range of 10 to 20 µM and the Emax was in the range of 160 to 199%.

For `O=C(Nc1cccc(S(=O)(=O)Nc2ccc(Br)cc2)c1)c1cnc(C(F)(F)F)[nH]1` [Compound 228], on TRAP1 enzyme [1], the EC50 was in the range of 10 to 20 µM and the maximal effect (Emax) was in the range of 200 to 300%.

For the compound `COc1ccc(NC(=O)c2ncc(C(F)(F)F)[nH]2)cc1S(=O)(=O)Nc1ccc(Br)cc1` [Compound 229, N-(3-(N-(4-bromophenyl)sulfamoyl)-4-methoxyphenyl)-5-(trifluoromethyl)-1H-imidazole-2-carboxamide], at TRAP1 enzyme [1], the EC50 lay in the range of 20 to 100 µM and the maximal response (Emax) fell in the range of 160 to 199%.

On to `COc1ccc(NC(=O)c2cnc(C(F)(F)F)[nH]2)cc1S(=O)(=O)Nc1ccccc1C` [Compound 232], for which, at TRAP1 enzyme [1], the concentration giving a half-maximal response (EC50) is less than 10 µM and the maximal effect (Emax) lay in the range of 123 to 159%.

With `COc1ccc(NC(=O)c2cnc(-c3ccccc3)[nH]2)cc1S(=O)(=O)N(CCCCCC[P+](c1ccccc1)(c1ccccc1)c1ccccc1)c1ccc(Br)cc1` [Compound 242], on TRAP1 enzyme [1], the EC50 was less than 10 µM and the Emax fell in the range of 200 to 300%.

On to `COc1ccc(NC(=O)c2cnc(-c3ccccc3)[nH]2)cc1S(=O)(=O)N(CCCCCC(=O)O)c1ccc(Br)cc1` [Compound 243, 6-((N-(4-bromophenyl)-2-methoxy-5-(2-phenyl-1H-imidazole-5-carboxamido)phenyl)sulfonamido) hexanoic acid], for which, on TRAP1 enzyme [1], the 50% effective concentration (EC50) lay in the range of 10 to 20 µM and the Emax is greater than 300%.

For the compound `COc1ccc(NC(=O)c2cnc[nH]2)cc1S(=O)(=O)N(CCCCCCO)c1ccc(Br)cc1` [Compound 246, N-(3-(N-(4-bromophenyl)-N-(6-hydroxyhexyl)sulfamoyl)-4-methoxyphenyl)-1H-imidazole-5-carboxamide], at TRAP1 enzyme [1], the EC50 fell in the range of 20 to 100 µM and the Emax was in the range of 200 to 300%.

In the case of `CCOC(=O)CCCCCN(c1ccc(Br)cc1)S(=O)(=O)c1cc(NC(=O)c2ncco2)ccc1OC` [Compound 247], at TRAP1 enzyme [1], the EC50 was less than 10 µM and the Emax fell in the range of 123 to 159%.

Take `COc1ccc(NC(=O)c2ncco2)cc1S(=O)(=O)N(CCCCCC(=O)O)c1ccc(Br)cc1` [Compound 250]: at TRAP1 enzyme [1], the EC50 lay within 10 to 20 µM and the Emax is 200 to 300%.

For the compound `COc1ccc(NC(=O)c2cnc[nH]2)cc1S(=O)(=O)N(CCCCCCBr)c1ccc(Br)cc1` [Compound 251, N-(3-(N-(6-bromohexyl)-N-(4-bromophenyl)sulfamoyl)-4-methoxyphenyl)-1H-imidazole-5-carboxamide], on TRAP1 enzyme [1], the 50% effective concentration (EC50) was less than 10 µM and the Emax is 200 to 300%.

As to `COc1ccc(NC(=O)c2cnc(-c3ccccc3)[nH]2)cc1S(=O)(=O)N(CCCCCCO)c1ccc(Br)cc1` [Compound 253], at TRAP1 enzyme [1], the EC50 is 10 to 20 µM and the Emax was in the range of 160 to 199%.

For `COc1ccc(NC(=O)c2ncco2)cc1S(=O)(=O)N(CCCCCCO)c1ccc(Br)cc1` [Compound 255], at TRAP1 enzyme [1], the concentration for a half-maximal effect (EC50) lay within 10 to 20 µM and the Emax fell in the range of 160 to 199%.

For `COc1ccc(NC(=O)c2cnc(C(F)(F)F)[nH]2)cc1S(=O)(=O)N(CCCCCCO)c1ccc(Br)cc1` [Compound 257], on TRAP1 enzyme [1], the EC50 was in the range of 20 to 100 µM and the Emax was greater than 300%.

Turning to `COc1ccc(NC(=O)c2coc(-c3cc(F)c(F)c(F)c3)n2)cc1S(=O)(=O)Nc1c(C)csc1C` [Compound 2415], at TRAP1 enzyme [2], the EC50 was less than 10 µM and the Emax lay in the range of 123 to 159%.

Consider `COc1ccc(NC(=O)c2ncoc2C(C)C)cc1S(=O)(=O)Nc1ccc(Cl)cc1` [Compound 2476], for which, on TRAP1 enzyme [2], the concentration for a half-maximal effect (EC50) lay in the range of 10 to 20 µM and the maximal effect (Emax) is 123 to 159%.

For `COc1ccc(NC(=O)c2ncc(-c3cc(F)c(F)c(F)c3)o2)cc1S(=O)(=O)Nc1c(C)csc1C` [Compound 2519], on TRAP1 enzyme [2], the EC50 lay within 20 to 100 µM and the Emax was in the range of 123 to 159%.
